Where two headings read alike, the source gives them in different places.
Key:
[1] = tested on: acide homovanillique (HVA); assay: Effect on central dopaminergic activity (homovanillic acid accumulation in whole brain); assay type: in vivo, souris; conditions: mouse whole brain, 500 mg/kg p.os
Protocol: L'effet des produits sur l'activité dopaminergique centrale a été étudié par la mesure de l'accumulation de l'acide homovanillique sur une période de 24 h après l'administration des produits chez la souris.
Le taux d'acide homovanillique (HVA) est évalué dans le cerveau entier, les animaux reçoivent une injection de probenecid (200 mg/kg i.p.) 1 h 30 min avant le sacrifice (lot de 10 animaux).

[2] = Acute toxicity (mortality over 24 h); conditions: in vivo, po, mouse, observed 24 h
Protocol: Les produits à étudier sont administrés par voie orale aux doses de 500 et 1 000 mg/kg à des lots de souris. On observe les souris pendant 24 h et note la mortalité.
Les résultats exprimés en pourcentage de mortalité figurent dans le tableau XI ci-après.

souris [3] = assay: Anticonvulsant effect against electroshock seizures; assay type: in vivo; conditions: 1 h; mouse, electroshock 12.5 V for 0.5 s, 60 min after oral dosing; read-out: Dose efficace médiane de protection des crises toniques (DE 50) Electrochoc
Protocol: (§1) L'effet anticonvulsivant a été déterminé vis-à-vis des crises convulsives provoquées par l'électrochoc ou par la bicuculline.
L'électrochoc (12,5 V pendant 0,5 s) est effectué chez la souris 60 min après l'administration du produit par voie orale.
(§2) En opérant sur divers lots d'animaux avec des doses différentes du produit à étudier, on peut déterminer la dose efficace médiane (DE 50).
(§3) Les résultats sont rassemblés dans le tableau VIII ci-après et montrent les propriétés anticonvulsivan- tes nettes des produits étudiés.

souris [4] = assay: Anticonvulsant effect against bicuculline-induced tonic seizures; assay type: in vivo; conditions: 1 h; mouse, bicuculline 1 mg/kg i.v. 60 min after oral dosing; read-out: Dose efficace médiane de protection des crises toniques (DE 50) Bicuculline
Protocol: as §1
La bicuculline est administrée à la souris par voie intraveineuse à raison de 1 mg/kg, 60 min après le produit à étudier donné per os. On note l'effet protecteur obtenu vis-à-vis des crises toniques.
as §2, §3

souris [5] = assay: Actography (locomotor activity, two perpendicular light beams); assay type: in vivo; conditions: mouse, 500 mg/kg oral; grouping in words
Protocol: La mesure de l'actographie est effectuée chez la souris 45 min. après l'administration du produit. On opère sur des lots de 12 animaux, chacun d'eux étant isolé pendant 10 min. avant la mesure. Le comptage des scores est effectué par coupure de deux faisceaux lumineux perpendiculaires.
Dans le tableau IV ci-après sont rassemblés les résultats obtenus avec divers produits de l'invention administrés à la dose de 500 mg/kg par voie orale. Les résultats sont exprimés en pourcentage de variation des scores obtenus par rapport à des animaux témoins non traités.
On peut constater que les produits se répartissent en deux groupes : • ceux provoquant de l'hypomotilité tels que 40217, 40039, 40271, 40272, 40319; dans le cas où les animaux traités présentent une perte du réflexe de retournement, ce qui traduit l'effet de narcose propre du produit, on a noté PRR; • ceux provoquant de l'hypermotilité, tels que 40142, 40398, 40397, 40404, 40253, 40355, 40209; pour préciser les résultats obtenus, l'étude pour deux produits a été reprise en effet-dose suivant le même protocole. • Les résultats obtenus figurent dans le tableau V ci-après.

souris [6] = assay: Potentiation of pentobarbital narcosis (loss of righting reflex); assay type: in vivo; conditions: mouse; for ED50: po, p. os 1 h before pentobarbital 20 mg/kg i.p., unit not given for DE 50, read-out: dose (p. os) provoquant 50 % d'induction de narcose (DE 50); for Pourcentage d'animaux en narcose à 500 mg/kg p. os: 500 mg/kg p. os 1 h before pentobarbital 20 mg/kg i.p.
Protocol: Les produits à étudier ont été administrés per os chez la souris à la dose de 500 mg/kg, 1 h avant le pentobarbital injecté par voie intrapéritonéale à raison de 20 mg/kg.
On détermine le pourcentage des animaux ayant perdu le réflexe de retournement. Les résultats sont exprimés en pourcentage ou, dans quelques cas, en dose efficace 50 (DE 50) ou dose provoquant la narcose chez 50 % des animaux traités.
Les résultats figurent dans le tableau VI ci-après.

[7] = 500 mg/kg p. os, read-out: p. cent de mortalité à 500 mg/kg p. os
[8] = 1000 mg/kg p. os, read-out: p. cent de mortalité à 1000 mg/kg p. os

| SMILES | mortality at 24 h [2, 7] [%] | mortality at 24 h [2, 8] [%] | ED50 (souris [4]) [mg/kg] | hypomotilité / hypermotilité (souris [5]) | Pourcentage d'animaux en narcose à 500 mg/kg p. os (souris [6]) [%] | other results |
| --- | --- | --- | --- | --- | --- | --- |
| CCCCNC(=O)CCCNC(=O)CCC [40 142] | 0 | 0 | 325 | hypermotilité | – | Taux de HVA en ([1]; 2 h): 379 ± 11 ng/g; Taux de HVA en ([1]; 4 h): 793 ± 52 ng/g; Taux de HVA en ([1]; 6 h): 571 ± 23 ng/g; Taux de HVA en ([1]; 24 h): 290 ± 16 ng/g; Taux de HVA en ([1]; time 0 (baseline)): 521 ± 29 ng/g; ED50 (souris [3]): 150 mg/kg; ED50 (souris [6]): 297 mg/kg |
| CCCC(=O)NCCCC(=O)N1CCOCC1 [40 206] | 0 | 0 | – | – | 0 | – |
| CCCC(=O)NCCCC(=O)NC1CCCC1 [40 209] | 0 | 20 | – | hypermotilité | – | – |
| CCCC(=O)NCCCC(=O)N(C(C)CC)C(C)CC (stereo not drawn) [40 216] | 0 | 100 | – | – | 100 | – |
| CCCC(=O)NCCCC(=O)N(CCC)CCC [40 217] | 0 | 0 | – | hypomotilité | 0 | – |
| CCCCNC(=O)CCNC(=O)CCC [40 253] | 0 | 0 | < 500 | hypermotilité | 50 | ED50 (souris [3]): 500 mg/kg |
| CCCCNC(=O)CCCNC(=O)C(C)(C)C [40 254] | 0 | 20 | < 500 | – | 50 | – |
| CCCCN(CCCC)C(=O)CCNC(=O)CCC [40 271] | 0 | 100 | < 500 | hypomotilité | 100 | ED50 (souris [3]): 500 mg/kg |
| CCCCN(CCCC)C(=O)CCCNC(=O)C(C)(C)C [40 272] | 0 | 0 | – | hypomotilité | 72 | – |
| CCCC(=O)NCCCC(=O)NCc1ccccc1 [40 316] | 0 | 0 | – | – | 70 | – |
| CCCCNC(=O)CCNC(=O)C(C)(C)C [40 318] | – | – | – | – | 90 | – |
| CCCCN(CCCC)C(=O)CCNC(=O)C(C)(C)C [40 319] | 0 | 0 | – | hypomotilité | – | ED50 (souris [6]): 175 mg/kg |
| CCCCNC(=O)CC(C)NC(=O)CCC (stereo not drawn) [40 395] | 0 | 20 | – | – | 70 | – |
| CCCCNC(=O)CCC(C)NC(=O)CCC (stereo not drawn) [40 397] | 0 | 20 | – | hypermotilité | 100 | – |
| CCCNC(=O)CCCNC(=O)CCC [40 398] | 0 | 0 | – | hypermotilité | – | ED50 (souris [6]): 350 mg/kg |
| CCCC(=O)NCCCC(N)=O [40 401, Dioxo-2,7 diaza-1,6 décane] | 0 | 0 | – | – | 0 | – |
| CCCCNC(=O)C(C)CCNC(=O)CCC (stereo not drawn) [40 404] | 0 | 0 | – | hypermotilité | 40 | – |
| CCCCNC(=O)CCCNC(=O)CC(C)C [40 417] | 0 | 20 | – | – | – | – |
| CCCNC(=O)CCCNC(=O)CC(C)C [40 418] | 0 | 0 | 300 | – | – | – |
| CCCCNC(=O)CCCNC(=O)C1CC1 [40 443] | 0 | 0 | – | – | 40 | – |
| CCCCN(CCCC)C(=O)CCCNC(=O)C(C)C [40 462] | 0 | 0 | 150 | – | 30 | ED50 (souris [3]): 500 mg/kg |
| CCCC(=O)NCCCC(=O)NCC [40 463] | 0 | 0 | 380 | – | – | – |
| CCCC(=O)NCCCC(=O)NC(C)C [40 466] | 0 | 0 | – | – | 30 | – |
| CCCCNC(=O)CCCNC(=O)C(C)C [40 467] | 0 | 0 | 150 | – | – | ED50 (souris [3]): < 500 mg/kg |
| CCCCCNC(=O)CCCNC(=O)CCC [40 521] | – | – | 250 | – | – | ED50 (souris [3]): 180 mg/kg |
| CCCCCCNC(=O)CCCNC(=O)CCC [40 947] | 0 | 0 | 250 | – | – | ED50 (souris [3]): 400 mg/kg |
| CCCCCN(CCCCC)C(=O)CCCNC(=O)CCC [40 984] | 0 | 100 | – | – | 60 | – |
| CCCC(=O)NCCCC(=O)NC(C)(C)CC [40 989] | 0 | 80 | – | – | 50 | – |
